From paper PMC3230693 (Nature structural & molecular biology, 2011)
Each block holds one compound with its values, some of them ahead of it.

Assays:
L858R tEGFR = L858R tEGFR (Homo sapiens, UniProt P00533, L858R)
[1] = target: WT tEGFR (human EGFR aa 25–1022) (Homo sapiens, UniProt P00533); test: Radiometric kinase inhibition assay, WT tEGFR; format: biochemical
Δ746–750 tEGFR = Δ746–750 tEGFR (Homo sapiens, UniProt P00533, DEL746-750)
HEK293 GnTi− cells = test: Expression of mutant tEGFRs in transfected cells; format: cell-based, human; conditions: 50 nM in culture medium; western blot
[2] = target: L858R I706Q tEGFR (human)
EGFR catalytic domain = conditions: cited from earlier work
[3] = target: Δ(746–750) I706Q tEGFR (human)

Compound: Nc1ncnc2c1ncn2[C@@H]1O[C@H](COP(=O)(O)OP(=O)(O)NP(=O)(O)O)[C@@H](O)[C@H]1O [AMP-PNP]
IC50 (L858R tEGFR; L858R tEGFR–EGF, 10 µM ATP, range stated for WT and mutant tEGFRs): 80 to 200 µM | Ki fold higher compared with WT (L858R tEGFR; L858R vs WT tEGFR, range stated for both mutants): 5–8 fold | IC50 ([1]; WT tEGFR–EGF, 10 µM ATP, range stated for WT and mutant tEGFRs): 80 to 200 µM | Ki ([1]; read-out: Ki (deduced from IC50, ATP concentration and ATP Kmapp), WT tEGFR–EGF): 21 ± 5 µM | Ki fold higher compared with WT (Δ746–750 tEGFR; Δ746–750 vs WT tEGFR, range stated for both mutants): 5–8 fold | IC50 (Δ746–750 tEGFR; Δ(746–750) tEGFR–EGF, 10 µM ATP, range stated for WT and mutant tEGFRs): 80 to 200 µM

Compound: C#Cc1cccc(Nc2ncnc3cc(OCCOC)c(OCCOC)cc23)c1 [erlotinib]
expression of L858R and Δ746–750 tEGFRs (HEK293 GnTi− cells): enhanced expression

The next lines start with results.

kinase rate in the presence of EGF, against the single mutant L858R tEGFR [2]: 30 fold lower
Compound: L858R I706Q tEGFR (receptor)

inhibition by MIG6 segment 1 (L858R tEGFR; L858R tEGFR–EGF, up to 100 µM): essentially resistant to inhibition | IC50 ([1]; EGF–bound WT tEGFR, phosphorylation of biotinylated substrate peptide): 100 µM | inhibition by MIG6 segment 1 (Δ746–750 tEGFR; Δ(746–750) tEGFR–EGF, up to 100 µM): essentially resistant to inhibition
Compound: Segment 1 of MIG6: MIG6 segment 1 (30mer, residues 334–364) peptide made by solid-phase peptide synthesis (SPKSLPSYLNGVMPPTQSFAPDPKYVSSKAL)
affinity, fold weaker relative to segment 1+2 (EGFR catalytic domain): ~ 100 fold

kinase rate of the EGF–bound form, against Δ746–750 tEGFR [3]: 5 fold lower
Compound: Δ(746–750) I706Q tEGFR (receptor)
